Measured values from ChEMBL document CHEMBL1201862, “PubChem BioAssay data set” (2004).
The source made the active and inactive calls.

Experiments:
[1] = molecular target: T1, Lysine-specific demethylase 4C (Homo sapiens, UniProt Q9H3R0); assay: inhibition of JMJD2C H3K9me3 demethylation – biochemical, DELFIA europium, cherry-picked samples, dose response (AID 488835); assay type: functional
T1 sequence (Q9H3R0 whole entry): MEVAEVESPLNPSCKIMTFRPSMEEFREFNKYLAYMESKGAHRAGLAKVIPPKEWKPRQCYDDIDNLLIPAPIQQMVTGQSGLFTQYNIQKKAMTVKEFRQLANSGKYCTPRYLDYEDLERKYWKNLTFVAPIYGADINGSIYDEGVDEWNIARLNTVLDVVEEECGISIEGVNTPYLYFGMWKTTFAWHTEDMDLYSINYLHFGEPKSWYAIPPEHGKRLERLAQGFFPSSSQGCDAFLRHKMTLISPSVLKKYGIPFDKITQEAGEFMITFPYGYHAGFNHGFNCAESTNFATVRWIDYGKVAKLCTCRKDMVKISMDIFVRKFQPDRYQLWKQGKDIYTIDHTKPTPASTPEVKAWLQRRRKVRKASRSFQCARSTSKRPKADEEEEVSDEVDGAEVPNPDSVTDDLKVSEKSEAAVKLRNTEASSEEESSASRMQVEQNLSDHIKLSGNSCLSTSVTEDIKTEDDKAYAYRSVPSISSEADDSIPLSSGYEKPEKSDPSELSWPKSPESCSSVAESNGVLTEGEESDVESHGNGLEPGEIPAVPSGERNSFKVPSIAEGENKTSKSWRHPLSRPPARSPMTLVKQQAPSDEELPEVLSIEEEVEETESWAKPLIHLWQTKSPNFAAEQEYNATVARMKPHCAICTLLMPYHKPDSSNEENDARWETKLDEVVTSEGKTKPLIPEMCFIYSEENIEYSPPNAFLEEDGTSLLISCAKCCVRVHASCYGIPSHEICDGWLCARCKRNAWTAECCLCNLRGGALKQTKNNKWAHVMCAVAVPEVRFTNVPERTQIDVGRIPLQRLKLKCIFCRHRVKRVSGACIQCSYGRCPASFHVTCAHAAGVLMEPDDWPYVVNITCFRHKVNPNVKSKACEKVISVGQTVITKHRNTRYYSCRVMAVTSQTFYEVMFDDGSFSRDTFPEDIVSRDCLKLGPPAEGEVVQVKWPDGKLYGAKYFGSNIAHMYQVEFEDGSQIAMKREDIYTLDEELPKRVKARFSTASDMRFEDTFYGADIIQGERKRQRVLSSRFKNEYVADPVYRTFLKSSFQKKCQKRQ

cells = assay type: functional, cell-based
[2] = molecular target: Peroxisome proliferator-activated receptor gamma/Nuclear receptor coactivator 1 (Homo sapiens, UniProt P37231); assay: (§1) TR-FRET dose response biochemical High Throughput Screening assay for agonists of the steroid receptor coactivator 1 (SRC-1) recruitment by the peroxisome proliferator-activated receptor gamma (PPAR gamma): non-selective agonists. [Related pubchem assays (depositor defined):AID1300, AID1808, AID504735, AID631]; assay type: protein assay
[3] = molecular target: Peroxisome proliferator-activated receptor gamma/Nuclear receptor coactivator 3 (Homo sapiens, UniProt P37231); assay: as §1, with “3 (SRC-3)” for “1 (SRC-1)”, “assays: 1301 (Confirmation screen.), 1048 (Primary screen.)]” for “assays (depositor defined):AID1300, AID1808, AID504735, AID631]”; assay type: functional
[4] = molecular target: Peroxisome proliferator-activated receptor gamma/Nuclear receptor coactivator 2 (Homo sapiens, UniProt P37231); assay: TR-FRET dose response biochemical High Throughput Screening assay for agonists of the steroid receptor coactivator 2 (SRC-2) recruitment by the peroxisome proliferator-activated receptor gamma (PPAR gamma): non-selective agonists. [Related pubchem assays: 1297, 1032 ]; assay type: functional
[5] = molecular target: T2, Microphthalmia-associated transcription factor (Homo sapiens, UniProt O75030); assay: reducers of TRPM1 reporter luminescence, concentration series – cell-based, SK-MEL-5, cherry-picked, set 3, MITF inhibitor project, dose response (AID 493073); assay type: functional;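 note: SK-MEL-5 melanoma cells with luciferase driven by the MITF target TRPM1 promoter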
T2 sequence (O75030 whole entry): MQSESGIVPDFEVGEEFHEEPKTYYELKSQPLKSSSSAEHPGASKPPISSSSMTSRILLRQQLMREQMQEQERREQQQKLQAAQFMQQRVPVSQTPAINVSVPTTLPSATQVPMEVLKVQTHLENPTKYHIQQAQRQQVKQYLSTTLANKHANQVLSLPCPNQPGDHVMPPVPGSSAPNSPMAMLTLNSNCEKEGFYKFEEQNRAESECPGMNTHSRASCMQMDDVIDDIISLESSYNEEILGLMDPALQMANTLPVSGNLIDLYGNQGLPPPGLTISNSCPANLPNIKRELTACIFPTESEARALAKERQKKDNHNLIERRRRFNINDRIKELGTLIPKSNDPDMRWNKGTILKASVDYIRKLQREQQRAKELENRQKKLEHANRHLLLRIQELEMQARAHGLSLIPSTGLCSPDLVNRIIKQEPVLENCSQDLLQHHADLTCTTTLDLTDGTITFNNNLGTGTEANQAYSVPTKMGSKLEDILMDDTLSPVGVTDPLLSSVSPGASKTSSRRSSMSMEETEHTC

A-375 = assay: MITF: Counter assay: A375 proliferation Measured in Cell-Based System Using Plate Reader - 2084-03_Inhibitor_Dose_DryPowder_Activity. [Related pubchem assays (depositor defined):AID488944]; assay type: functional; conditions: Homo sapiens
Cytochrome P450 1A2 = molecular target: T3, Cytochrome P450 1A2 (Homo sapiens, UniProt P05177);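 note: PubChem cytochrome P450 panel assay, CYP1A2 panel member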
T3 sequence (P05177 whole entry): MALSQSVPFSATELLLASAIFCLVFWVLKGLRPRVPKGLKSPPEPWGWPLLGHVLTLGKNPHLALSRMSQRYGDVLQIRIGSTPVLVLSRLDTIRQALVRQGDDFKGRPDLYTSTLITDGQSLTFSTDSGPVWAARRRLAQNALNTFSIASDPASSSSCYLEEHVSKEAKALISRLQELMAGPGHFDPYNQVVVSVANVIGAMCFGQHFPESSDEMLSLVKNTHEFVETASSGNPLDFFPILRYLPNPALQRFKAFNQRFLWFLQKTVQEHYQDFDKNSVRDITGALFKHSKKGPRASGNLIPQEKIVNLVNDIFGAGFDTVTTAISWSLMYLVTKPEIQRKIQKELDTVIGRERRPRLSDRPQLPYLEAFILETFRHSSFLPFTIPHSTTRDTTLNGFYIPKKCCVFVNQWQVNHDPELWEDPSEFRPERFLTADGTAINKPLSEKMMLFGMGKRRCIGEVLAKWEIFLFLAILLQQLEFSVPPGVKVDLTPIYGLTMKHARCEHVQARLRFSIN

Cytochrome P450 3A4 = Cytochrome P450 3A4 (Homo sapiens, UniProt P08684);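 note: CYP3A4 tested as one member of a cytochrome P450 panel screen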
Escherichia coli = assay: microbe, parasite or virus in culture
[6] = HEK-293T cell viability reduction – luminescence, B-cell screen hits, cytotoxicity control for BCR NF-kB inhibitor project, dose response (AID 489021); assay type: functional, cell-based;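 note: HEK-293T cells carrying an NF-kB luciferase reporter; cells exposed to compound for about 14 hours before viability readout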
HEK293 [7] = assay: cells; assay type: functional, cell-based; conditions: Homo sapiens
HEK293 [8] = assay: cells; assay type: functional, cell-based; conditions: Homo sapiens; remark: listed apart in the source
HEK293 [9] = assay: NOD2 signaling inhibitors in MDP-stimulated cells, cell-based, uHTS, luminescence (AID 2001); assay type: functional; conditions: Homo sapiens
HEK293 [10] = assay: inhibition of NOD1-driven NF-kB reporter – cell-based, luminescence, uHTS, primary screen (AID 1578); assay type: functional; conditions: Homo sapiens
[11] = loss of viability in HepG2 cells – cell-based, CellTiter-Glo, cherry-picked, cytotoxicity control for Shn3 inhibitor project, dose response (AID 624134); assay type: functional
[12] = reduction of Shn3 3'UTR-driven luciferase in osteoblasts – cell-based, Clone20 osteoblasts, firefly luciferase, cherry-picked, dose response (AID 624132); assay type: functional;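 note: firefly luciferase luminescence from reporter carrying the Shn3 3'UTR in osteoblasts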
[13] = molecular target: T4, Calpain-2 catalytic subunit (Sus scrofa, UniProt P43367); assay: m-calpain protease blockers, concentration series – biochemical, fluorogenic peptide substrate, dose response (AID 1420); assay type: functional
T4 sequence (P43367 whole entry): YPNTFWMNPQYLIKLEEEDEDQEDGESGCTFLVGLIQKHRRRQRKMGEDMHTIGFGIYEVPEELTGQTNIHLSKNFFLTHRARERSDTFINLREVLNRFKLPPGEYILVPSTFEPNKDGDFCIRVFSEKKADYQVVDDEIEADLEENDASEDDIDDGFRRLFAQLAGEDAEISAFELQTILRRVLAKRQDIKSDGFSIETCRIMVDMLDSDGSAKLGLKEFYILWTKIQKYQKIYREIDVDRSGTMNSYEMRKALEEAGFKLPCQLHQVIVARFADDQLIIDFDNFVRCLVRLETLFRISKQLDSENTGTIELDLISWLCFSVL

[14] = non-specific 3'UTR reporter inhibition in Clone20-Shn3RL – cell-based, Renilla luciferase, cherry-picked, counter-screen for Shn3 inhibitor project, dose response (AID 624133); assay type: functional
Cytochrome P450 2C19 = Cytochrome P450 2C19 (Homo sapiens, UniProt P33261); assay: Cytochrome panel assay with activity outcomes. Panel member name: p450-cyp2c19 Compounds with AC50 equal or less than 10 uM are considered active; assay type: functional; conditions: read-out: AC50
Sequence of Cytochrome P450 2C19 (P33261 whole entry): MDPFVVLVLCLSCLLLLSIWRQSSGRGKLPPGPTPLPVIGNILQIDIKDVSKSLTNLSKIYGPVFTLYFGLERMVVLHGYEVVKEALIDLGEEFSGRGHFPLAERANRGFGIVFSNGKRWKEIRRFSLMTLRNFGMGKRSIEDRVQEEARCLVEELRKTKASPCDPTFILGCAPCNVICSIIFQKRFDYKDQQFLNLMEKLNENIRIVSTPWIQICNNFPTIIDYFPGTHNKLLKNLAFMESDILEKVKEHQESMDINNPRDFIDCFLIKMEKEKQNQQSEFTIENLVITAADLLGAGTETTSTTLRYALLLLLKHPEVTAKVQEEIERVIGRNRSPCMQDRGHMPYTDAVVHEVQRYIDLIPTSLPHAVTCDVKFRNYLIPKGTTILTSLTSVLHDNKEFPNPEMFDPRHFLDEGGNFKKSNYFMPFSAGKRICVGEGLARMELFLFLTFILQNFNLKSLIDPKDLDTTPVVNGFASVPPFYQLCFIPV

Sequence of Peroxisome proliferator-activated receptor gamma/Nuclear receptor coactivator 2 (P37231 whole entry): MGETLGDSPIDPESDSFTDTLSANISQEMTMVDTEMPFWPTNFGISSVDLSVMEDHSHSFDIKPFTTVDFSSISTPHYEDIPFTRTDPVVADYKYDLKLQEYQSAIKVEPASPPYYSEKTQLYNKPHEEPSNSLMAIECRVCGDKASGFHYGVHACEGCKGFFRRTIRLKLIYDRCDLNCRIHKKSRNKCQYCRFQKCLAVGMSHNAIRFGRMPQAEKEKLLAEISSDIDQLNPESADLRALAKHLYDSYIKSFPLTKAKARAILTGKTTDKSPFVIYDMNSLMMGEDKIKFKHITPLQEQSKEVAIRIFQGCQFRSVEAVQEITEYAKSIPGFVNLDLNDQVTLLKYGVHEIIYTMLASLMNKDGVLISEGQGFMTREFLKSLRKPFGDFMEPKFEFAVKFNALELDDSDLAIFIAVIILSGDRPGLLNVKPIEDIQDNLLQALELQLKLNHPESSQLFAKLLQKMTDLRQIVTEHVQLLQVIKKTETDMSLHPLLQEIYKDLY
Sequence of Peroxisome proliferator-activated receptor gamma/Nuclear receptor coactivator 2 (Q15596 whole entry, further chain): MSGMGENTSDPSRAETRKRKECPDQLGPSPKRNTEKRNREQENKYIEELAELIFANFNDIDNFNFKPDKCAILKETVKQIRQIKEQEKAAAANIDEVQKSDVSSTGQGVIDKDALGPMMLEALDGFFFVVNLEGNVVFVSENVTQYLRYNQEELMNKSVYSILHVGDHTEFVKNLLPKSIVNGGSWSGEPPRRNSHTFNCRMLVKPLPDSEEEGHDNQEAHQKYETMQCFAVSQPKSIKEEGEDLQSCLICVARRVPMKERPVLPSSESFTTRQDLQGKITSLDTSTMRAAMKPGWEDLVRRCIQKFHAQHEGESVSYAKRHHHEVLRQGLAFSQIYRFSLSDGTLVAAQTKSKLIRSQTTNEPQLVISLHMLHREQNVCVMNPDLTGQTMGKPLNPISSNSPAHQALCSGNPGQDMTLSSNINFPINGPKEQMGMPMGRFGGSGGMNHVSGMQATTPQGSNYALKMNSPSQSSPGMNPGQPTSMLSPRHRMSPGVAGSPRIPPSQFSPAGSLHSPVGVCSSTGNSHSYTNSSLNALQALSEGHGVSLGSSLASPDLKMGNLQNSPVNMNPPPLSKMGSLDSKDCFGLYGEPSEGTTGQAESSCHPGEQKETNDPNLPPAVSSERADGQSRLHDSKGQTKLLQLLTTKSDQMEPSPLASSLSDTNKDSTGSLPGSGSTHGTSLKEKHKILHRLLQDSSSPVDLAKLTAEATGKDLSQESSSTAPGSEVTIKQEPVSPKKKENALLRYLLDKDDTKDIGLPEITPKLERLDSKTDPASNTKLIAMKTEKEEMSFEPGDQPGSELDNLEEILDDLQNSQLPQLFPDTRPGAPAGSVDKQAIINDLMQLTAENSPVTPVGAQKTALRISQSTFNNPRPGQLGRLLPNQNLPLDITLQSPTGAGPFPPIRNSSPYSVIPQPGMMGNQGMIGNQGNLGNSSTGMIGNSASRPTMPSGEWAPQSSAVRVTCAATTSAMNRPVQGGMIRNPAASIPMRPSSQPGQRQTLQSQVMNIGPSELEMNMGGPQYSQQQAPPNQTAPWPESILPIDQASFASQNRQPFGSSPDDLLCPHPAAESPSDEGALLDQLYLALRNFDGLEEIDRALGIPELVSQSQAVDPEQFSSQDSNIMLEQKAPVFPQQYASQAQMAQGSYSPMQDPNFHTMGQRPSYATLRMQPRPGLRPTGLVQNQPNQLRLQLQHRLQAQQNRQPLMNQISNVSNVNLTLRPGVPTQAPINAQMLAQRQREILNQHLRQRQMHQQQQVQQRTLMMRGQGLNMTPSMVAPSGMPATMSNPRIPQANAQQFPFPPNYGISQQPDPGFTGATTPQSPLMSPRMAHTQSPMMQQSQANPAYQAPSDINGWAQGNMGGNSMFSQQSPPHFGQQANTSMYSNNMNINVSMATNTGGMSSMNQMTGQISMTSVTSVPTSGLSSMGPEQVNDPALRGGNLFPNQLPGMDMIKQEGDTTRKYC
Sequence of Peroxisome proliferator-activated receptor gamma/Nuclear receptor coactivator 3 (P37231 whole entry): as the sequence (P37231 whole entry) above
Sequence of Peroxisome proliferator-activated receptor gamma/Nuclear receptor coactivator 3 (Q9Y6Q9 whole entry, further chain): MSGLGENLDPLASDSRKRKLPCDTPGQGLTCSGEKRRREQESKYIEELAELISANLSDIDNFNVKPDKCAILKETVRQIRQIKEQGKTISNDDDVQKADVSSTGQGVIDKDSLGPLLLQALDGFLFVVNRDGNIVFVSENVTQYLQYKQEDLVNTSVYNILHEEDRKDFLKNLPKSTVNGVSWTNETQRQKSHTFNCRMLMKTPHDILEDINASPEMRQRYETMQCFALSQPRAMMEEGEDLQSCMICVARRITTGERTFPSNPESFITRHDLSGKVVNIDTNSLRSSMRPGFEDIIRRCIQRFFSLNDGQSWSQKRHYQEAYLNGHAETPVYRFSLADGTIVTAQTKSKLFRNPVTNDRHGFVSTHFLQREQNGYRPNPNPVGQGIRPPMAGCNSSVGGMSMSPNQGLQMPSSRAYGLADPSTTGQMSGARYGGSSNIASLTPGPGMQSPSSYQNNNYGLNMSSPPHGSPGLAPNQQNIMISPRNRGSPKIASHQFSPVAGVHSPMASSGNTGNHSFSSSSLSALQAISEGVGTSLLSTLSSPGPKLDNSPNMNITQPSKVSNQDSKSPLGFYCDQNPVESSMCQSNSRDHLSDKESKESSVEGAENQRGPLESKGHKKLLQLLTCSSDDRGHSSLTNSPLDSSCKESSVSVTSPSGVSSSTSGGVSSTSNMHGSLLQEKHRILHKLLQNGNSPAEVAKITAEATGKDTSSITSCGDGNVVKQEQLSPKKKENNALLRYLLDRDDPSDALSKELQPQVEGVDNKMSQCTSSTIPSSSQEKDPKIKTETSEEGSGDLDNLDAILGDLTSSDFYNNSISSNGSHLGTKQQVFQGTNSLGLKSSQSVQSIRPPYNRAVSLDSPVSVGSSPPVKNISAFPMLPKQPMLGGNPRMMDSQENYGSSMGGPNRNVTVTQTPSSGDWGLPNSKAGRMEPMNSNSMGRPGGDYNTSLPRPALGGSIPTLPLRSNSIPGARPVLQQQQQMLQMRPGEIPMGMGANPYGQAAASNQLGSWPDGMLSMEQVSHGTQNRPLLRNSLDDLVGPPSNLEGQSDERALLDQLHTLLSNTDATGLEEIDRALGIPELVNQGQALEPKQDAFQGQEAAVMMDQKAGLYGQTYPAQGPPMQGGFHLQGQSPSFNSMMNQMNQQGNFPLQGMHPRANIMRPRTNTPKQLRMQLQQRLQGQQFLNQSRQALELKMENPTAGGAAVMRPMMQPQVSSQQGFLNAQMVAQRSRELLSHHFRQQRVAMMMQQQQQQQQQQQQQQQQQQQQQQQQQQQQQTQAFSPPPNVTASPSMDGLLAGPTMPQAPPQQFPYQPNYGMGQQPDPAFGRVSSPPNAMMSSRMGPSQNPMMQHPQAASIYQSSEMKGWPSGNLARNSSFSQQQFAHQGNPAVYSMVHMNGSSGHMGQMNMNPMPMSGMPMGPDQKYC
Sequence of Cytochrome P450 3A4 (P08684 whole entry): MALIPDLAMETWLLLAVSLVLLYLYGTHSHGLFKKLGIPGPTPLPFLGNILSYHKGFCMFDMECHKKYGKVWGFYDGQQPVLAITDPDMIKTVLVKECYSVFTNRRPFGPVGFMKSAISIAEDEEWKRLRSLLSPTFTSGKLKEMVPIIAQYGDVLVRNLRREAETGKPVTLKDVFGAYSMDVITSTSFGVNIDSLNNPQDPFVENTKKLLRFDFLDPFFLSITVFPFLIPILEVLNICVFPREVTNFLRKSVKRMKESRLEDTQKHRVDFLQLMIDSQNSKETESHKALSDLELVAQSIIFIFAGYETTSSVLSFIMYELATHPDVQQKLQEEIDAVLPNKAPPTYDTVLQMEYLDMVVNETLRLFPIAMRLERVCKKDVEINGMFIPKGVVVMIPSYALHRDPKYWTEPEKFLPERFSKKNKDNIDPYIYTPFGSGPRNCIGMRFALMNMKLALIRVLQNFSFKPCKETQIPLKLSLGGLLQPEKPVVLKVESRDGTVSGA

For COC(=O)[C@@H](N)Cc1ccc(O)c(O)c1, which AC50 [1] is on record?
The AC50 was 11.5 µM (active).

What does the source list for COc1ccc(-c2csc(NNC3=NCCCCC3)n2)cc1?
EC50 (cells): > 350 µM (not active); AC50 [1]: 7.08 µM (active)

What does the source list for CCn1c(=O)cc(SCC(=O)NCc2ccc3c(c2)OCO3)c2ccccc21?
EC50 [2]: > 79.4 µM (inactive); EC50 [3]: > 79.4 µM (not active); EC50 [4]: > 79.4 µM (not active)

For COCCCNC(=O)C1CCN(C(=O)Nc2ccc(Cl)cc2)CC1, which AC50 [1] is on record?
Its AC50 is 44.8 µM (active).

With CCN1CCN(C2=C(NS(=O)(=O)c3ccc(C)cc3)C(=O)c3ccccc3C2=O)CC1 as the compound, how does the AC50 [5] read?
The AC50 was 4.18 µM (active).

And the AC50 (A-375)?
Its AC50 is 36.6 µM (active).

Which results are given for Cc1ccc2nc(SCc3nnc(-c4ccccc4[N+](=O)[O-])o3)c(C#N)cc2c1?
AC50 (Cytochrome P450 1A2): 1.58 µM (inconclusive); AC50 (Cytochrome P450 3A4): inconclusive

For O=C(CN(Cc1ccco1)C(=O)c1ccccc1F)Nc1ccccc1C(F)(F)F, which AC50 (Escherichia coli) is on record?
The AC50 was 103 µM (active).

Which IC50 [6] does the source give for CCn1c(=O)cc(SCC(=O)N2CCC3(CC2)OCCO3)c2ccccc21 here?
Its IC50 is > 80 µM (inactive).

And the EC50 [2]?
The EC50 was > 79.4 µM (inactive).

What about the EC50 [3] of the same compound?
The EC50 was > 79.4 µM (not active).

And the EC50 [4]?
Its EC50 is > 79.4 µM (not active).

For CC(C)Cn1c(N)c(C(=O)COC(=O)CC23CC4CC(CC(C4)C2)C3)c(=O)n(C)c1=O, which IC50 (HEK293 [7]) is on record?
The IC50 was 2.31 µM (active).

What about the IC50 (HEK293 [8]) of the same compound?
The IC50 was 6.35 µM (active).

And the IC50 (HEK293 [9])?
Its IC50 is 3.31 µM (active).

And the EC50 (HEK293 [10])?
The EC50 was 3.06 µM (active).

And the AC50 [11]?
Its AC50 is 1.7 µM (active).

What about the AC50 [12] of the same compound?
The AC50 was 1.51 µM (active).

And the IC50 [13]?
The IC50 was 5.92 µM (not active).

What about the AC50 [14] of the same compound?
The AC50 was 435 nM (active).

With O=C(CCNC(=O)c1ccc([N+](=O)[O-])cc1)Nc1cccc(S(=O)(=O)N2CCCCCC2)c1 as the compound, how does the AC50 (Escherichia coli) read?
Its AC50 is 57 µM (active).

With Cc1cc(NC(=O)CSc2nc3ccsc3c(=O)n2CCCCC(=O)O)no1 as the compound, how does the AC50 (Cytochrome P450 3A4) read?
Its AC50 is “inconclusive”.

What about the AC50 (Cytochrome P450 2C19) of the same compound?
The AC50 was 3.98 µM (inconclusive).

Which AC50 (Escherichia coli) does the source give for CO[C@@]12[C@@H]3N[C@@H]3CN1C1=C(C(=O)C(N)=C(C)C1=O)[C@@H]2COC(N)=O here?
Its AC50 is 0.496 µM (active).
